In PMC5390258, “CMD-05, a novel promising clinical anti-diabetic drug candidate, in vivo and vitro studies” (Scientific Reports, 2017):

Experiments:
Kunming mice = assay: Acute toxicity in mice; assay type: in vivo
Method: For acute hypoglycemia test, male rats (150–250 g) were used. […].
Acute toxicological signs of included activities, nervous system response, autonomic nervous system response and death of mice were observed after a single oral dose of 2000 mg/kg.

plasma DPP-IV = biological target: T1, plasma DPP-IV (Rattus norvegicus, UniProt P14740); assay: Plasma DPP-IV activity after single oral dose in fasting normal rats; assay type: in vivo; settings: single oral 4.5 mg/kg
T1 construct: from tissue; host or cells: plasma of Sprague-Dawley rats
T1 sequence (P14740 whole entry): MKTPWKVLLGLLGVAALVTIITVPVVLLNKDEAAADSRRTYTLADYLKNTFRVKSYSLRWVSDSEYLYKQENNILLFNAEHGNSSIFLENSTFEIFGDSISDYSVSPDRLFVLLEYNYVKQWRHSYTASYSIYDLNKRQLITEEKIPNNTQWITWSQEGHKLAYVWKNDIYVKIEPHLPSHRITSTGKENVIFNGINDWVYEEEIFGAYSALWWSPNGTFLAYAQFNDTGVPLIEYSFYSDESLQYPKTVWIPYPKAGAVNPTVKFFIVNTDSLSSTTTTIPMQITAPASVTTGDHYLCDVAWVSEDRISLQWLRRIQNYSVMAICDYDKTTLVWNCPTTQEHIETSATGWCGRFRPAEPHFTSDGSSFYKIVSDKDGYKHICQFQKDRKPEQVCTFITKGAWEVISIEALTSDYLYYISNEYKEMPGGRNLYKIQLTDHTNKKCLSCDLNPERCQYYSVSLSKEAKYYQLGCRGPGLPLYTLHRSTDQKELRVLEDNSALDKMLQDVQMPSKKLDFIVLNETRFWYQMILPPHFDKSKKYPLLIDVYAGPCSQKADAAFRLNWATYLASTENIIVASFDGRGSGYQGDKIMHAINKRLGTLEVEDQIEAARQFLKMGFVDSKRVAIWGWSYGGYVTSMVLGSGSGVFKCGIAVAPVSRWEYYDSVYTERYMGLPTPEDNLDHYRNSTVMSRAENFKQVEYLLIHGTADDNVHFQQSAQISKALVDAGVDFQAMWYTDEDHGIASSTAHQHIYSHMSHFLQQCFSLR
Method: Oral glucose load, fasted and random blood samples was collected to measure DPP-IV activity at the 28th days, the 29th days and the last treatment of the CMD-05. DPP-IV enzyme assay was carried out according to a published method. The enzyme reaction was initiated by adding 5 mM Gly-Pro-AMC as a substrate. After 25 min of incubation, fluorescence of AMC released by the reaction was measured using a spectrofluorometer at an excitation wavelength of 353 nm and emission wavelength of 442 nm.
Blood samples were collected after administration of CMD-05 (4.5 mg/kg) at 15 min, 30 min, 1 h, 2 h, 4 h, 12 h, and 24 h to measure the DPP-IV activity in fasting normal rats, the concrete steps refer to the preceding.

[1] = Body weight of model rats; assay type: in vivo, rat; settings: 30 days treatment
Method: (§1) To establish model of T2DM, male rats (80–100 g, 9-week-old)[49] were fed high fat diet (HFD) (20% sugar, 10% lard, 10% egg yolk and 60% basal feed) after a week of normal diet. After 4 weeks, rats were injected once with low-dose streptozotocin (Solarbio, China) (STZ, 30 mg/kg i.p) to induce partial insulin deficiency, and then continuously fed HFD for 4 weeks after injection of STZ. Then the model rats were oral administrated drugs for 30 days. The body weights were recorded once a week.

INS-1 cells = assay: Apoptosis of INS-1 cells induced by STZ (Annexin V/PI flow cytometry); assay type: cell-based, rat; settings: STZ-induced, 1, 10, 100 μM, 36 h, concentration dependent
Method: The INS cells were seeded into 6-well culture plates at 3 × 10^4 cells per ml and incubated at 37 °C for 24 h. […] After incubated for 36 h, apoptosis was assessed by flow cytometry using the Annexin V-FITC/ propidium iodide (Annexin V/PI) apoptosis detection kit according to the manufacturer’s protocol.

TG, LDL-C = assay: TG and LDL-C plasma levels in model rats; assay type: in vivo, rat
Method: as §1
Oral glucose load, fasted and random blood samples were collected from rats on the 28th days, the 29th days and the last of the treatment of drugs, respectively. Plasma levels of insulin and GLP-1 were measured by ELISA kits (YuanYe, China) according to the manufacturer’s recommendation. The levels of HbA1c, Triglycerides (TG), total cholesterol (TC) and low density lipoprotein cholesterol (LDL-C) in blood samples were measured by commercial assay kits (JianCheng, Nanjing, China) according to the manufacturer’s directions.

pancreatic islets = assay: Morphologic observation on islet of model rats (HE, immunofluorescence, TEM); assay type: in vivo, rat
Method: HE staining on paraffin section was performed as described in reports. In brief, paraffin section were rinsed with PBS, fixed with 4% paraformaldehyde (PFA) for 30 min and then washed by PBS. The pancreas tissue were stained with Hematoxylin-Eosin, afterwards, they were dehydrated in alcohols. Morphological changes of the pancreas tissue were observed under an optical microscope (Olympus, Japan) after mounted by neutral resins.
Pancreas sections (8 μm) were cut in a cryostat and collected on superfrost microscope slides. The slides were stored at −20 °C till analysis. Immunofluorescent staining was used for detection of insulin (β cells) (1:100, Anti-Insulin antibody, Abcam), glucagon (α cells) (1:200, Anti-glucagon, Abcam). Briefly, the slides were blocked in 5% normal goat serum for 1 h in a humidified chamber. Slides were exposed to primary antibodies at a dilution of […] in antibody diluting solution at 4 °C overnight, washed in PBS, and exposed to appropriate secondary antibodies linked to the fluorescent probes (Goat Anti-Guinea pig IgG/FITC and Alexa Fluor 594-conjugated Goat Anti-Rabbit IgG) (Bioss and Proteintech, China) in antibody diluting solution for 1 h and DAPI (Beyotime, China) for 5 min in the dark. After washed by PBS, slides were mounted with a glycerol mounting medium. Images were collected using a fluorescent microscope (Nikon, Japan).
For transmission electron microscopy, about 1 mm^3 tissue specimens were obtained from the same pancreas region of the control and experimental groups of rats, and fixed overnight in 2% glutaraldehyde (pH7.3) in 0.1 M phosphate buffer saline at 4 °C. Images of pancreatic islets were captured from random tissue sections using a transmission electron microscope.

[2] = tested on: model rats (HFD/low-dose STZ, T2DM); assay: Oral glucose tolerance test (OGTT) in HFD/STZ T2DM model rats; assay type: in vivo, rat; settings: for percentage reduction of blood glucose levels in OGTT: model rats
Method: as §1
On the 1st day, 19th days and 29th days of treatment, oral glucose tolerance tests for model rats were carried out. […] The blood glucose levels were tested using Johnson one touch Ultra Test Strips on Johnson Performa blood glucose meter.

## N#C[C@@H]1CCCN1C(=O)CN(C(=O)CCCCCl)C12CC3CC(CC(O)(C3)C1)C2 [CMD-05]
Kunming mice; oral
  maximum tolerance dose: > 2000 mg/kg
Kunming mice; single oral dose of 2000 mg/kg
  acute toxicity signs: no toxicological signs
Plasma DPP-IV; rat, at 4 hours after the dose, read-out: maximum inhibition of plasma DPP-IV activity
  inhibition at 4.5 mg/kg: ~90%
Plasma DPP-IV
  duration of plasma DPP-IV inhibition greater than 50%: at least 15 hours
  time of maximum inhibition of plasma DPP-IV activity: 4 h
[1]
  body weights vs model group: no significant difference
INS-1 cells
  apoptosis of INS-1 cells: reduce of apoptosis
TG, LDL-C; 0.5 mg/kg
  reduction of LDL-C level: 9%
  reduction of TG level: 22.41%
TG, LDL-C; 1.5 mg/kg
  reduction of LDL-C level: 12.60%
  reduction of TG level: 37.07%
TG, LDL-C; 4.5 mg/kg
  reduction of LDL-C level: 17.91%
  reduction of TG level: 42.67%
TG, LDL-C; 4.5 mg/kg continuously for 30 days
  plasma lipids levels: decreased to normal level
Pancreatic islets; 30 days treatment
  distribution of β cells (insulin/glucagon double staining): obviously improved
  mass of α-cells (insulin/glucagon double staining): mildly reduced
  morphology of pancreatic islets (HE staining): prevent islet from damage
Pancreatic islets; compared with the model
  secretory granules in β cells (transmission electron microscopy): obviously increased
[2]; 1.5 mg/kg oral, 1st day
  percentage reduction of blood glucose levels in OGTT: 8.0%
[2]; 1.5 mg/kg oral, 19th day
  percentage reduction of blood glucose levels in OGTT: 9.22%
[2]; 1.5 mg/kg oral, 29th day
  percentage reduction of blood glucose levels in OGTT: 17.8%
[2]; 4.5 mg/kg oral, 1st day
  percentage reduction of blood glucose levels in OGTT: 9.7%
[2]; 4.5 mg/kg oral, 19th day
  percentage reduction of blood glucose levels in OGTT: 12.2%
[2]; 4.5 mg/kg oral, 29th day
  percentage reduction of blood glucose levels in OGTT: 21.9%
[2]; 1st, 19th and 29th day, vs model group
  AUC (area under the blood glucose curve) in OGTT: significant decrease
